Target: Vps34 (Homo sapiens (Human), UniProt Q8NEB9)
Test: Kinase Glo Luminescent Kinase Assay (Assay C)
Assay type: biochemical
Settings: 1 μM ATP
Excerpt: Kinase Glo Luminescent Kinase Assay (Kglo) for PI 3-Kinase Alpha (A), Pb 3-Kinase Beta (B), Vps34 (C), PI 4-Kinase Beta (D)
The luminescence-based ATP detection reagent KinaseGlo was obtained from Promega, (Cat. No. V6714, Lot No. 236161) through Catalys, Wallisellen, Switzerland. L-alpha-phosphatidylinositol (PI, liver, bovine) was obtained from Avanti Polar Lipid (Cat. No. 840042C, Lot#LPI-274), Phosphatidylinositol-4,5-bisphosphate (PIP(4,5)2) was also obtained from Avanti Polar Lipid (Cat. No. 840046X). L-α-Phosphatidylserine (PS) was obtained from Avanti Polar Lipid (Cat. No. 840032C), n-Octylglucoside from Avanti Polar Lipid (Cat. No. 10634425001). Luminescence is a well established readout to determine ATP concentrations and can thus be used to follow the activity of many kinases regardless of their substrate. The Kinase Glo Luminescent Kinase Assay (Promega, Madison/WI, USA) is a homogeneous HTS method of measuring kinase activity by quantifying the amount of ATP remaining in solution following a kinase reaction.
50 nL of compound dilutions were dispensed onto black 384-well low volume Non Binding Styrene (NBS) plates (Costar Cat. No. NBS#3676). L-α-phosphatidylinositol (PI), provided as 10 mg/ml solution in methanol, was transferred into a glass tube and dried under a nitrogen beam. It was then resuspended in 3% OctylGlucoside (1-O-n-octyl-beta-D-glucopyranoside) by vortexing and stored at 4° C. 5 μL of a mix of PI/OctylGlucoside with the PI 3-kinase alpha and PI 3-kinase beta subtypes, or Vps34 or PI 4-kinase beta were added. Kinase reactions were started by the addition of 5 μl of an ATP-mix containing in a final volume 10 μL 10 mM TRIS-HCl pH 7.5, 3 mM MgCl2, 50 mM NaCl, 0.05% CHAPS, 1 mM DTT and 1 μM ATP at room temperature. Reactions were stopped with 10 μl of KinaseGlo and plates were read 10 mins later in a Synergy2 reader using an integration time of 0.1 seconds per well. 2.5 μM of NVP-BGT226 (1-(3-(trifluoromethyl)-4-(piperazin-1-yl)phenyl)-8-(6-methoxypyridin-3-yl)-3-methyl-1H-imidazo[4,5-c]quinolin-2(3H)-one) was added to the assay plates to generate the 100% inhibition of the kinase reaction, and the 0% inhibition was given by the solvent vehicle (90% DMSO in water). (1-(3-(trifluoromethyl)-4-(piperazin-1-yl)phenyl)-8-(6-methoxypyridin-3-yl)-3-methyl-1H-imidazo[4,5-c]quinolin-2(3H)-one) was used as a reference compound and included in all assay plates in the form of 16 dilution points in duplicate.
IC50 values of the percentage inhibition of each compound at 8 concentrations (10, 3.0, 1.0, 0.3, 0.1, 0.030, 0.010 and 0.003 μM) n=2 were derived by fitting a sigmoidal dose-response curve to a plot of assay readout over inhibitor concentration as described. All fits were performed with the program XLfit4 (ID Business Solutions, Guildford, UK).

Vps34, sequence (Q8NEB9 whole entry, species assumed): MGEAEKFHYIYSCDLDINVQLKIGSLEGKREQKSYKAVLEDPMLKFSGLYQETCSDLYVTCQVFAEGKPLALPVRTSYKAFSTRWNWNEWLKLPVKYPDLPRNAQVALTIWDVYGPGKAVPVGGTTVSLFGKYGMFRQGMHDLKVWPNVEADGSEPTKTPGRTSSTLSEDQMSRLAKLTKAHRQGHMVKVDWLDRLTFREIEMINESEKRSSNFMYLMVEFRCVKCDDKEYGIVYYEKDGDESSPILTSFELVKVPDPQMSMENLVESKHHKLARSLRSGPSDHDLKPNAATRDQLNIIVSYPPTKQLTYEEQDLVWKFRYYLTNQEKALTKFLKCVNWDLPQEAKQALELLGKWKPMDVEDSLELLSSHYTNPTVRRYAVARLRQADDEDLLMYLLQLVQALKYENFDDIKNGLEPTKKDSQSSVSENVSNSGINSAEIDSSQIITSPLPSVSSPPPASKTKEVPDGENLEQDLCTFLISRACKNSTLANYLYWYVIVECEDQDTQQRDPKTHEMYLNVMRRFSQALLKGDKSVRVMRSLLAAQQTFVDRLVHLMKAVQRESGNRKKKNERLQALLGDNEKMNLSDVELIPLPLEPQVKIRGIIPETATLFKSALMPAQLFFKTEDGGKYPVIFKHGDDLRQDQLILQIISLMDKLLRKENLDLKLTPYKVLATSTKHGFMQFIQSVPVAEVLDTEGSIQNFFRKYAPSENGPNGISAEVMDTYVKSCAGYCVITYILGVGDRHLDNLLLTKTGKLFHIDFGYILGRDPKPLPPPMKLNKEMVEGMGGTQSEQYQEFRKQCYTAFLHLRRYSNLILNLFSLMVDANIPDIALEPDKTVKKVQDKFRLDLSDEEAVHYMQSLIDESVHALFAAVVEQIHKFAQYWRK

Row | IC50 [µM] | SMILES
1 | 3.45 | Cc1ccc(S(=O)(=O)NCC(C)(C)O)cc1-c1cncc(-c2cn(C)nc2C)n1 [Example 2, 3-[6-(1,3-Dimethyl-1H-pyrazol-4-yl)-pyrazin-2-yl]-N-(2-hydroxy-2-methyl-propyl)-4-methyl-benzenesulfonamide]
2 | 1.81 | Cc1ncc(-c2cncc(-c3cc(S(=O)(=O)N[C@H]4CC[C@H](O)CC4)ccc3C)n2)s1 [Example 5, Trans N-(4-Hydroxycyclohexyl)-4-methyl-3-(6-(2-methylthiazol-5-yl)pyrazin-2-yl)benzenesulfonamide]
3 | 5.3 | Cc1ccc(S(=O)(=O)NCCC(C)(C)O)cc1-c1cncc(-c2cn(C)nc2C)n1 [Example 3, 3-[6-(1,3-Dimethyl-1H-pyrazol-4-yl)-pyrazin-2-yl]-N-(3-hydroxy-3-methyl-butyl)-4-methyl-benzenesulfonamide]
4 | 4.4 | Cc1ccc(S(=O)(=O)NCC(C)(C)CO)cc1-c1cncc(-c2cn(C)nc2C)n1 [Example 8, 3-[6-(1,3-Dimethyl-1H-pyrazol-4-yl)-pyrazin-2-yl]-N-(3-hydroxy-2,2-dimethyl-propyl)-4-methyl-benzenesulfonamide]
5 | 3.08 | Cc1ccc(S(=O)(=O)N[C@H]2CC[C@H](O)CC2)cc1-c1cncc(-c2cccnc2)n1 [Example 11, Trans N-(4-Hydroxy-cyclohexyl)-4-methyl-3-(6-pyridin-3-yl-pyrazin-2-yl)-benzenesulfonamide]
6 | 4.3 | Cc1ccc(S(=O)(=O)NCC2(C)COC2)cc1-c1cncc(-c2cn(C)nc2C)n1 [Example 4, Trans 3-[6-(1,3-Dimethyl-1H-pyrazol-4-yl)-pyrazin-2-yl]-4-methyl-N-(3-methyl-oxetan-3-ylmethyl)-benzenesulfonamide]
7 | > 9.1 | Cc1ccc(S(=O)(=O)NCCC(C)(C)O)cc1-c1cncc(-c2cnn(CCN3CCOCC3)c2)n1 [Example 9, N-(3-Hydroxy-3-methyl-butyl)-4-methyl-3-{6-[1-(2-morpholin-4-yl-ethyl)-1H-pyrazol-4-yl]-pyrazin-2-yl}-benzenesulfonamide]
8 | 3.07 | Cc1ncc(-c2cncc(-c3cc(S(=O)(=O)NCCCO)ccc3C)n2)s1 [Example 1, N-(3-Hydroxy-propyl)-4-methyl-3-[6-(2-methyl-thiazol-5-yl)-pyrazin-2-yl]-benzenesulfonamide]
9 | > 10 | Cc1ccc(S(=O)(=O)NCCC(C)(C)O)cc1-c1cncc(-c2cn(CCN3CCOCC3)nc2C)n1 [Example 10, N-(3-Hydroxy-3-methyl-butyl)-4-methyl-3-{6-[3-methyl-1-(2-morpholin-4-yl-ethyl)-1H-pyrazol-4-yl]-pyrazin-2-yl}-benzenesulfonamide]
